# From paper PMC7269146, “Jingzhaotoxin-X, a gating modifier of Kv4.2 and Kv4.3 potassium channels purified from the venom of the Chinese tarantula Chilobrachys jingzhao” (The Journal of Venomous Animals and Toxins Including …, 2020)
# Where a SMILES comes first, the peptide text is derived from it. Bridges are numbered along the chain shown (N, C = ends).
# System: Kv1.3
# Assay: microelectrode voltage-clamp, Xenopus laevis oocytes, Kv1.3
# Type: cell-based
# Conditions: 10 μM, 300-ms depolarization to +20 mV from -90 mV, pH 7.5, 19-23°C, n = 3
# Description: Briefly, plasmids were linearized, and transcription was carried out according to the standardized protocol. Afterwards, the capped cRNAs that encoded the related ion channels were prepared. To conduct transcription in vitro, firstly, NotL was utilized to linearize plasmids pCI that contained both Kv1.1 (Accession: NM_010595.3) and Kv2.1 (Accession: AF026005.1), whereas SphI was adopted to linearize plasmid PcDNA3 containing Kv1.2 (Accession: NM_012970.3) gene. […] Thereafter, the linearized plasmids were used as the templates to synthesize cRNAs in vitro using the large-scale T7 mMESSAGE mMACHINE transcription kit (Ambion, USA).
# A mature female X. laevis was placed on the ice for anesthesia, and then the Xenopus laevis oocytes at stage IV-VI were extracted. Subsequently, those extracted oocytes were treated by collagenase (1 mg/mL) contained within the calcium-depleted ND96 solution (containing 96 mM NaCl, 10 mM HEPES, 1 mM MgCl2, and 2 mM KCl) for defolliculation. […]
# Firstly, the effects of JZTX-X on the isoforms of potassium channels (including Kv1.1-1.3, Kv2.1, as well as Kv4.2-4.3) contained within the X. laevis oocytes were investigated through the microelectrode voltage-clamp approach. […] We also determined the effects of JZTX-X on Ito potassium channels in rat DRG neurons; those current amplitudes were inhibited by 54.4±6.8% when 500 nM JZTX-X was applied (Fig. 3K, n = 5).
structure (smiles),measurement,value
"CC(C)C[C@@H]1NC(=O)[C@H](CCCCN)NC(=O)[C@H](Cc2ccc(O)cc2)NC(=O)[C@@H]2CSSC[C@@H]3NC(=O)[C@H](Cc4ccc(O)cc4)NC(=O)[C@H](Cc4ccccc4)NC(=O)CNC(=O)[C@H](C)NC(=O)[C@H](CSSC[C@H](NC(=O)[C@@H](N)CC(C)C)C(=O)N[C@@H](CO)C(=O)N[C@@H](CCCNC(=N)N)C(=O)N[C@@H](CCC(=O)O)C(=O)NCC(=O)N[C@@H](CCC(=O)O)C(=O)N[C@@H](Cc4ccccc4)C(=O)N2)NC(=O)[C@H](CSSC[C@@H](C(=O)N[C@@H](Cc2ccc(O)cc2)C(=O)N[C@@H](CCCNC(=N)N)C(=O)N[C@@H](CC(N)=O)C(=O)O)NC(=O)[C@H](Cc2c[nH]cn2)NC(=O)[C@H](CC(C)C)NC(=O)[C@H](C(C)C)NC(=O)[C@H](Cc2ccccc2)NC(=O)[C@H](C)NC(=O)[C@H](CCCCN)NC3=O)NC(=O)[C@H](CCCCN)NC(=O)[C@H](CCCNC(=N)N)NC1=O [JZTX-X, Jingzhaotoxin-X] (H-LCSREGEFCYKLRKCCAGFYCKAFVLHCYRN-OH; disulfide 2-16, 9-21, 15-28; N-terminus assumed)",inhibition of Kv1.3 current,less than 5%
